# System: RS4;11 cells
# Assay: Cell viability assay (CellTiter-Glo) in RS4;11 cells
# Type: cell-based
# Conditions: Homo sapiens, 72 h; RS4;11 cells; cell viability, 3 days, CellTiter-Glo; read-out: IC50
# Procedure, shortened: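 Three-day compound treatment of RS4;11 ALL cells (5000/well, 3-fold dilution series of 8 or 12 points), with IC50 from a nonlinear least-squares fit to CellTiter-Glo viability data.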
row,Compound,IC50
1,"Cc1cnc(Nc2ccc(N3CCN(C(=O)CCOCCOCCOCCOCCOCCNc4ccc5c(c4)C(=O)N(C4CCC(=O)NC4=O)C5=O)CC3)cc2)nc1Nc1cccc(S(=O)(=O)NC(C)(C)C)c1 (centres unmarked) [JA-236, N-(tert-butyl)-3-((2-((4-(4-(1-((2-(2,6-dioxopiperidin-3-yl)-1,3-dioxoisoindolin-5-yl)amino)-3,6,9,12,15-pentaoxaoctadecan-18-oyl)piperazin-1-yl)phenyl)amino)-5-methylpyrimidin-4-yl)amino)benzenesulfonamide]",2640 nM
2,"Cc1cnc(Nc2ccc(N3CCN(CC(=O)NCCOCCOCCOCCNc4ccc5c(c4)C(=O)N(C4CCC(=O)NC4=O)C5=O)CC3)cc2)nc1Nc1cccc(S(=O)(=O)NC(C)(C)C)c1 (centres unmarked) [JA-239, 2-(4-(4-((4-((3-(N-(tert-butyl)sulfamoyl)phenyl)amino)-5-methylpyrimidin-2-yl)amino)phenyl)piperazin-1-yl)-N-(2-(2-(2-(2-((2-(2,6-dioxopiperidin-3-yl)-1,3-dioxoisoindolin-5-yl)amino)ethoxy)ethoxy)ethoxy)ethyl)acetamide]",743 nM
3,"Cc1cnc(Nc2ccc(N3CCN(CC(=O)NCCOCCOCCOCCOCCNc4ccc5c(c4)C(=O)N(C4CCC(=O)NC4=O)C5=O)CC3)cc2)nc1Nc1cccc(S(=O)(=O)NC(C)(C)C)c1 (centres unmarked) [JA-240, 2-(4-(4-((4-((3-(N-(tert-butyl)sulfamoyl)phenyl)amino)-5-methylpyrimidin-2-yl)amino)phenyl)piperazin-1-yl)-N-(14-((2-(2,6-dioxopiperidin-3-yl)-1,3-dioxoisoindolin-5-yl)amino)-3,6,9,12-tetraoxatetradecyl)acetamide]",638 nM
4,"Cc1cnc(Nc2ccc(N3CCN(CC(=O)NCCOCCOCCOCCOCCOCCNc4ccc5c(c4)C(=O)N(C4CCC(=O)NC4=O)C5=O)CC3)cc2)nc1Nc1cccc(S(=O)(=O)NC(C)(C)C)c1 (centres unmarked) [JA-241, 2-(4-(4-((4-((3-(N-(tert-butyl)sulfamoyl)phenyl)amino)-5-methylpyrimidin-2-yl)amino)phenyl)piperazin-1-yl)-N-(17-((2-(2,6-dioxopiperidin-3-yl)-1,3-dioxoisoindolin-5-yl)amino)-3,6,9,12,15-pentaoxaheptadecyl)acetamide]",1040 nM
5,"Cc1cnc(Nc2ccc(N3CCN(CC(=O)NCCCCNc4ccc5c(c4)C(=O)N(C4CCC(=O)NC4=O)C5=O)CC3)cc2)nc1Nc1cccc(S(=O)(=O)NC(C)(C)C)c1 (centres unmarked) [JA-243, 2-(4-(4-((4-((3-(N-(tert-butyl)sulfamoyl)phenyl)amino)-5-methylpyrimidin-2-yl)amino)phenyl)piperazin-1-yl)-N-(4-((2-(2,6-dioxopiperidin-3-yl)-1,3-dioxoisoindolin-5-yl)amino)butyl)acetamide]",1980 nM
6,"Cc1cnc(Nc2ccc(N3CCN(CC(=O)NCCCCCCCNc4ccc5c(c4)C(=O)N(C4CCC(=O)NC4=O)C5=O)CC3)cc2)nc1Nc1cccc(S(=O)(=O)NC(C)(C)C)c1 (centres unmarked) [JA-246, 2-(4-(4-((4-((3-(N-(tert-butyl)sulfamoyl)phenyl)amino)-5-methylpyrimidin-2-yl)amino)phenyl)piperazin-1-yl)-N-(7-((2-(2,6-dioxopiperidin-3-yl)-1,3-dioxoisoindolin-5-yl)amino)heptyl)acetamide]",229 nM
7,"Cc1cnc(Nc2ccc(N3CCN(CC(=O)NCCCCCCCCNc4ccc5c(c4)C(=O)N(C4CCC(=O)NC4=O)C5=O)CC3)cc2)nc1Nc1cccc(S(=O)(=O)NC(C)(C)C)c1 (centres unmarked) [JA-247, 2-(4-(4-((4-((3-(N-(tert-butyl)sulfamoyl)phenyl)amino)-5-methylpyrimidin-2-yl)amino)phenyl)piperazin-1-yl)-N-(8-((2-(2,6-dioxopiperidin-3-yl)-1,3-dioxoisoindolin-5-yl)amino)octyl)acetamide]",484 nM
8,"CS(=O)(=O)c1ccc(-c2cccc3nc(Nc4ccc(N5CCN(C(=O)CCCCC#Cc6ccc7c(c6)CN(C6CCC(=O)NC6=O)C7=O)CC5)cc4)nn23)cc1 (centres unmarked) [JA-250, 3-(5-(7-(4-(4-((5-(4-(Methylsulfonyl)phenyl)-[1,2,4]triazolo[1,5-a]pyridin-2-yl)amino)phenyl)piperazin-1-yl)-7-oxohept-1-yn-1-yl)-1-oxoisoindolin-2-yl)piperidine-2,6-dione]",181 nM
9,"CS(=O)(=O)c1ccc(-c2cccc3nc(Nc4ccc(N5CCN(C(=O)CCCCCCc6ccc7c(c6)CN(C6CCC(=O)NC6=O)C7=O)CC5)cc4)nn23)cc1 (centres unmarked) [JA-251, 3-(5-(7-(4-(4-((5-(4-(Methylsulfonyl)phenyl)-[1,2,4]triazolo[1,5-a]pyridin-2-yl)amino)phenyl)piperazin-1-yl)-7-oxoheptyl)-1-oxoisoindolin-2-yl)piperidine-2,6-dione]",337 nM
10,"CS(=O)(=O)c1ccc(-c2cccc3nc(Nc4ccc(N5CCN(CCCCCC#Cc6ccc7c(c6)C(=O)N(C6CCC(=O)NC6=O)C7=O)CC5)cc4)nn23)cc1 (centres unmarked) [JA-252, 2-(2,6-dioxopiperidin-3-yl)-5-(7-(4-(4-((5-(4-(methylsulfonyl)phenyl)-[1,2,4]triazolo[1,5-a]pyridin-2-yl)amino)phenyl)piperazin-1-yl)hept-1-yn-1-yl)isoindoline-1,3-dione]",24.6 nM
11,"CS(=O)(=O)c1ccc(-c2cccc3nc(Nc4ccc(N5CCN(C(=O)CCCCCOc6ccc7c(c6)C(=O)N(C6CCC(=O)NC6=O)C7=O)CC5)cc4)nn23)cc1 (centres unmarked) [JA-255, 2-(2,6-Dioxopiperidin-3-yl)-5-((6-(4-(4-((5-(4-(methylsulfonyl)phenyl)-[1,2,4]triazolo[1,5-a]pyridin-2-yl)amino)phenyl)piperazin-1-yl)-6-oxohexyl)oxy)isoindoline-1,3-dione]",259 nM

# The next lines start with the values.
row,IC50,Compound
1,> 10000 nM,"Cc1cnc(Nc2ccc(N3CCN(CC(=O)NCCOCCNc4ccc5c(c4)C(=O)N(C4CCC(=O)NC4=O)C5=O)CC3)cc2)nc1Nc1cccc(S(=O)(=O)NC(C)(C)C)c1 (centres unmarked) [JA-237, 2-(4-(4-((4-((3-(N-(tert-butyl)sulfamoyl)phenyl)amino)-5-methylpyrimidin-2-yl)amino)phenyl)piperazin-1-yl)-N-(2-(2-((2-(2,6-dioxopiperidin-3-yl)-1,3-dioxoisoindolin-5-yl)amino)ethoxy)ethyl)acetamide]"
2,723 nM,"Cc1cnc(Nc2ccc(N3CCN(CC(=O)NCCOCCOCCNc4ccc5c(c4)C(=O)N(C4CCC(=O)NC4=O)C5=O)CC3)cc2)nc1Nc1cccc(S(=O)(=O)NC(C)(C)C)c1 (centres unmarked) [JA-238, 2-(4-(4-((4-((3-(N-(tert-butyl)sulfamoyl)phenyl)amino)-5-methylpyrimidin-2-yl)amino)phenyl)piperazin-1-yl)-N-(2-(2-(2-((2-(2,6-dioxopiperidin-3-yl)-1,3-dioxoisoindolin-5-yl)amino)ethoxy)ethoxy)ethyl)acetamide]"
3,543 nM,"Cc1cnc(Nc2ccc(N3CCN(CC(=O)NCCNc4ccc5c(c4)C(=O)N(C4CCC(=O)NC4=O)C5=O)CC3)cc2)nc1Nc1cccc(S(=O)(=O)NC(C)(C)C)c1 (centres unmarked) [JA-242, 2-(4-(4-((4-((3-(N-(tert-butyl)sulfamoyl)phenyl)amino)-5-methylpyrimidin-2-yl)amino)phenyl)piperazin-1-yl)-N-(2-((2-(2,6-dioxopiperidin-3-yl)-1,3-dioxoisoindolin-5-yl)amino)ethyl)acetamide]"
4,> 10000 nM,"Cc1cnc(Nc2ccc(N3CCN(CC(=O)NCCCCCNc4ccc5c(c4)C(=O)N(C4CCC(=O)NC4=O)C5=O)CC3)cc2)nc1Nc1cccc(S(=O)(=O)NC(C)(C)C)c1 (centres unmarked) [JA-244, 2-(4-(4-((4-((3-(N-(tert-butyl)sulfamoyl)phenyl)amino)-5-methylpyrimidin-2-yl)amino)phenyl)piperazin-1-yl)-N-(5-((2-(2,6-dioxopiperidin-3-yl)-1,3-dioxoisoindolin-5-yl)amino)pentyl)acetamide]"
5,150 nM,"Cc1cnc(Nc2ccc(N3CCN(CC(=O)NCCCCCCNc4ccc5c(c4)C(=O)N(C4CCC(=O)NC4=O)C5=O)CC3)cc2)nc1Nc1cccc(S(=O)(=O)NC(C)(C)C)c1 (centres unmarked) [JA-245, 2-(4-(4-((4-((3-(N-(tert-butyl)sulfamoyl)phenyl)amino)-5-methylpyrimidin-2-yl)amino)phenyl)piperazin-1-yl)-N-(6-((2-(2,6-dioxopiperidin-3-yl)-1,3-dioxoisoindolin-5-yl)amino)hexyl)acetamide]"
6,247 nM,"CS(=O)(=O)c1ccc(-c2cccc3nc(Nc4ccc(N5CCN(C(=O)CCCCC#Cc6ccc7c(c6)C(=O)N(C6CCC(=O)NC6=O)C7=O)CC5)cc4)nn23)cc1 (centres unmarked) [JA-248, 2-(2,6-Dioxopiperidin-3-yl)-5-(7-(4-(4-((5-(4-(methylsulfonyl)phenyl)-[1,2,4]triazolo[1,5-a]pyridin-2-yl)amino)phenyl)piperazin-1-yl)-7-oxohept-1-yn-1-yl)isoindoline-1,3-dione]"
7,104 nM,"CS(=O)(=O)c1ccc(-c2cccc3nc(Nc4ccc(N5CCN(C(=O)CCCCCCc6ccc7c(c6)C(=O)N(C6CCC(=O)NC6=O)C7=O)CC5)cc4)nn23)cc1 (centres unmarked) [JA-249, 2-(2,6-Dioxopiperidin-3-yl)-5-(7-(4-(4-((5-(4-(methylsulfonyl)phenyl)-[1,2,4]triazolo[1,5-a]pyridin-2-yl)amino)phenyl)piperazin-1-yl)-7-oxoheptyl)isoindoline-1,3-dione]"
8,298 nM,"CS(=O)(=O)c1ccc(-c2cccc3nc(Nc4ccc(N5CCN(CCCCCCCc6ccc7c(c6)C(=O)N(C6CCC(=O)NC6=O)C7=O)CC5)cc4)nn23)cc1 (centres unmarked) [JA-253, 2-(2,6-Dioxopiperidin-3-yl)-5-(7-(4-(4-((5-(4-(methylsulfonyl)phenyl)-[1,2,4]triazolo[1,5-a]pyridin-2-yl)amino)phenyl)piperazin-1-yl)heptyl)isoindoline-1,3-dione]"
9,1150 nM,"CS(=O)(=O)c1ccc(-c2cccc3nc(Nc4ccc(N5CCN(CCCCCCNc6ccc7c(c6)C(=O)N(C6CCC(=O)NC6=O)C7=O)CC5)cc4)nn23)cc1 (centres unmarked) [JA-254, 2-(2,6-Dioxopiperidin-3-yl)-5-((6-(4-(4-((5-(4-(methylsulfonyl)phenyl)-[1,2,4]triazolo[1,5-a]pyridin-2-yl)amino)phenyl)piperazin-1-yl)hexyl)amino)isoindoline-1,3-dione]"

# Reference: patent US20230093099A1, “COMPOUNDS AND METHODS OF TREATING CANCERS” (CULLGEN (SHANGHAI), INC., priority 2019, published 2023)
